Measurements published in patent US20240261302A1, “METHODS OF TREATING NEURODEGENERATIVE DISEASES OR CONDITIONS” (FloraScience Inc., priority 2023, published 2024).

Key:
HT22 cells [1] = experiment: Oxytosis Assay (glutamate-induced cell death, MTT); type: cell-based, mouse; details: 5 mM, 16 hr, vs control group
Experimental: Oxytosis Assay. HT22 cells were seeded at 3,000 cells/well in 96-well tissue culture plates in DMEM plus 10% FBS and 1% antibiotics. After 24 hr of plating, the cells were pretreated with different concentrations of the test compounds or a vehicle control for 1 hr followed by coincubation with 5 mM glutamate to initiate the cell death cascade. After 16 hr of treatment, cell viability was measured by the 3−(4,5-dimethylthiazol-2-yl)-2,5-diphenyltetrazolium bromide (MTT) assay. Optical absorbance was measured at 570 nm on a SpectraMax M5 microplate reader. Samples were analyzed in eight to sixteen wells per independent experiment (n=8-16). Results were presented as the percentage of the controls with vehicle alone.

[2] = Cell viability after RSL3 with/without FCCP (CyQUANT DNA-based assay, fluorescence microscopy), mt-GFP/mCherry-Parkin cells; design: species or system mouse; details: mouse, HT22 mt-GFP/mCherry-Parkin cells, FCCP treatment 40 hr, read-out: decrease in cell viability compared to the vehicle control
[3] = Cell viability after RSL3 with/without FCCP (CyQUANT DNA-based assay, fluorescence microscopy), mt-GFP WT cells; design: species or system mouse; details: mouse, HT22 mt-GFP WT cells, FCCP treatment 40 hr, read-out: decrease in cell viability compared to the vehicle control
[4] = Cell-free, liposome-based assay of lipid peroxidation (STY-BODIPY); type: biochemical; details: test compounds 10 μM
Experimental: For the cell-free, liposome-based assay, STY-BODIPY (1.5 μM) and liposomes of egg-PC (1 mM) (Avanti Polar Lipids Inc, Cat #840051P, AL) in TBS (pH 7.4) were added to an opaque 96-well plate. This was followed by the addition of test compounds (10 μM). The plate was incubated for 30 min at 37° C. and then vigorously mixed for 5 min. The autoxidation was initiated by the addition of V-70 (0.5 mM) (Fujifilm Wako, Cat #001-70078, Japan), followed by additional mixing for 5 min. Data were acquired at Ex/Em=488/518 nm every 15 min at 37° C. on a SpectraMax M5 microplate reader. Data were transformed into [ox-STY-BODIPY] by taking the raw fluorescent values of the saturated curve of control DMSO and dividing them by the initial concentration of reduced STY-BODIPY ([…]). Samples were analyzed in quadruplicate in four independent experiments (n=4).

HT22 cells [5] = experiment: Cellular Lipid Peroxidation Measurement (C11-BODIPY); type: cell-based, mouse
Experimental: Lipid Peroxidation MeasurementsHT22 cells were seeded onto 96-well black walled plates at a density of 3,000 cells/well in DMEM supplemented with 10% FBS and 1% antibiotics. After the desired treatments, cells were labeled with 2.5 μM C11-BODIPY 581/591 (oxidized form Ex/Em=488/520 nm) at 37° C. for 2 hr. Experiments were performed according to the manufacturer's instructions. Fluorescence was measured on a SpectraMax M5 microplate reader. Data were normalized for total protein/well. Each condition was analyzed in twelve wells per independent experiment (n=12). Results were presented as the percentage of the controls with vehicle alone. Results were verified by live-cell imaging under a fluorescence microscope.

[6] = tested on: HT22 mt-GFP/mCherry-Parkin cells; experiment: Cell viability after RSL3 with/without FCCP (CyQUANT DNA-based assay, fluorescence microscopy), mt-GFP/mCherry-Parkin cells; design: species or system mouse; details: for protection against RSL3-induced cell death, no FCCP pretreatment: 16 hr; for protection against RSL3 after FCCP pretreatment (mitochondria-depleted cells): FCCP 5 μM 24 hr, then 16 hr
HT22 cells [7] = experiment: MitoTracker Assay (mitochondrial mass); type: cell-based, mouse; details: 50 nM, vs control cells
Experimental: MitoTracker Assay. HT22 cells were seeded onto 96-well black walled plates at a density of 5,000 cells/well in DMEM supplemented with 10% FBS and 1% antibiotics. After the desired treatments, MitoTracker Orange CM−H2TMRos (Ex/Em=554/576 nm) and Hoechst 33342 (Ex/Em=360/460 nm) dyes were added to the cells and incubated under the same culture condition for 2 hr. Fluorescence was measured on a SpectraMax M5 microplate reader. Experiments were performed according to the manufacturer's instructions. Data were normalized for total protein/well. Each condition was analyzed in sixteen wells per independent experiment (n=16). Results were presented as the percentage of the controls with vehicle alone. Results were verified by live-cell imaging under a fluorescence microscope.

HT22 cells [8] = experiment: Ferroptosis Assay (RSL3-induced cell death, MTT); type: cell-based, mouse
Experimental: Ferroptosis Assay: HT22 cells were seeded at 3,000 cells/well in 96-well tissue culture plates in DMEM plus 10% FBS and 1% antibiotics. After 24 hr of plating, the cells were pretreated with different concentrations of test compounds or a vehicle control for 1 hr followed by coincubation with 50 nM RSL3 to induce the cell death cascade. After 16 hr of treatment, cell viability was measured by the MTT assay. Optical absorbance was measured at 570 nm on a SpectraMax M5 microplate reader. Samples were analyzed in eight to sixteen wells per independent experiment (n=8-16). Results were presented as the percentage of the controls with vehicle alone.

HT22 mt-GFP WT cells = experiment: Cell viability after RSL3 with/without FCCP (CyQUANT DNA-based assay, fluorescence microscopy), mt-GFP WT cells; design: species or system mouse
HT22 cells [9] = experiment: Mitochondrial Membrane Potential Assay (JC-10) in HT22 cells; type: cell-based, mouse; details: 50 nM, 4 hr
Experimental: Mitochondrial Membrane Potential Assay. Cells seeded at 5,000 cells/well onto 96-well black walled plates were treated with test compounds at the desired concentrations under the culture condition described above. The mitochondrial uncoupler FCCP at 2 μM was used as a reference control. After the desired treatments for 4 hr, the cells were subjected to a JC-10 mitochondrial membrane potential assay according to the manufacturer's instruction. Fluorescence intensities (Ex/Em=490/525 nm, and Ex/Em=540/590 nm) of each well were monitored on a SpectraMax M5 microplate reader. The ratio of fluorescence intensity (590/525 nm) was used to determine the mitochondrial membrane potential (ΔΨm). Decreasing ratios indicate mitochondrial membrane depolarization. Samples were analyzed in eight to sixteen wells per independent experiment (n=8-16). Results were verified by live-cell imaging under a fluorescence microscope.

HT22 cells [10] = experiment: Oxytosis/ferroptosis assay with erastin (Table 2); type: cell-based; details: Mus musculus, HT-22; erastin as inducer; method not given; read-out: Observed EC50 erastin

N[C@@H](CCC(=O)O)C(=O)O [glutamate, reference compound]
cell death by inducer alone (HT22 cells [1]): 40-60%

N#CC(C#N)=NNc1ccc(OC(F)(F)F)cc1 [FCCP, carbonyl cyanide-4-(trifluoromethoxy)phenylhydrazone, reference compound]
cytotoxicity at 40 hr, 5 μM [2]: ~40%
cytotoxicity at 40 hr, 5 μM [3]: ~40%

CCOC(=O)c1ccc(NC2CCCCC2)c(N)c1 [ferrostatin]
inhibition of lipid peroxidation, cell-free [4]: showed a potent effect against lipid peroxidation
RSL3-induced cellular lipid peroxidation (HT22 cells [5]; 50 nM RSL3, 16 hr, p<0.0001): effectively suppressed
basal cellular lipid peroxidation, compound alone (HT22 cells [5]; CBN 5 μM, ferrostatin 10 μM, 16 hr): neither CBN (5 μM) nor ferrostatin (10 μM) alone changed basal levels of lipid peroxidation
protection against RSL3-induced cell death, no FCCP pretreatment [6]: effectively protected
protection against RSL3 after FCCP pretreatment (mitochondria-depleted cells) [6]: rescued

COC1=C(OC)C(=O)C(CCCCCCCCCC[P+](c2ccccc2)(c2ccccc2)c2ccccc2)=C(C)C1=O [MitoQ]
protection against RSL3-induced cell death, no FCCP pretreatment [6]: effectively protected
protection against RSL3 after FCCP pretreatment (mitochondria-depleted cells) [6]: showed no cytoprotection

COC(=O)c1ccc([C@@H]2c3[nH]c4ccccc4c3C[C@@H](C(=O)OC)N2C(=O)CCl)cc1 [RSL3, reference compound]
increase of cellular lipid peroxidation level (HT22 cells [5]; 50 nM, 16 hr): approximately 30%
cell viability in FCCP pretreated cells [6]: 10-15%
decrease of MitoTracker intensity (HT22 cells [7]): 8.4%
cell death by inducer alone (HT22 cells [8]; 50 nM, 16 hr, vs control group): 40-60%
cell viability in FCCP pretreated cells (HT22 mt-GFP WT cells): 10-15%
effect on ΔΨm (HT22 cells [9]): no impact

CCCCCc1cc(O)c2c(c1)oc1c(C)ccc(C(C)C)c12 [CBF, 5-isopropyl-8-methyl-2-pentyl-9-oxa-4-fluorenol]
EC50 (HT22 cells [10]): 310 nM
EC50 (HT22 cells [8]; Mus musculus, HT-22, HT22 cells, 1 hr pretreatment, 50 nM RSL3, 16 hr, MTT, read-out: Observed EC50 RSL3): 150 nM
